Experiment [1] deals with MAPK14 (human) (UniProt Q16539). Nature of the experiment: Inhibition of MAPK14 Kinase Activity by PHAS-I Assay. Particulars: for inhibition: concentration not given here.
Experiment [2] has the same target. Briefly: Inhibition of LPS Stimulated TNF Production by U937 Cells. Particulars: for inhibition: concentration not given here.

SMILES strings stand for the structures. Values joined by “and” are separate entries in the source; they are usually repeats but may differ in a detail not shown here. Equal values may be shown once. Some results are limits rather than exact numbers.

This is an account of results in the Kinase Knowledgebase extract (Sharma et al. 2016).

Chain of MAPK14 (human) (Q16539 whole entry, looked up): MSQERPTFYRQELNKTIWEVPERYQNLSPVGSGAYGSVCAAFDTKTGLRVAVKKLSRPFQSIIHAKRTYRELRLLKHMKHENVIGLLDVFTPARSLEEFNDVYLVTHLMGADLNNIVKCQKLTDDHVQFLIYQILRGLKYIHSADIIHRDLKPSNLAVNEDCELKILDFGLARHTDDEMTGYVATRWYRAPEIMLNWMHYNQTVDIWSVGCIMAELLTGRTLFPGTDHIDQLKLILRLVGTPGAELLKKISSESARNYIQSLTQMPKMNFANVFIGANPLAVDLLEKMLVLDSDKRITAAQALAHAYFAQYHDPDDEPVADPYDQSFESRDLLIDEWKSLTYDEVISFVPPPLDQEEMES

As for `COc1ccc(S(=O)(=O)NCCc2[nH]nc(-c3ccc(F)cc3)c2-c2ccncc2)cc1OC`, the inhibition against MAPK14 (human) [1] was found to be 70%; on MAPK14 (human) [2], 17%.
On to `CC(=O)Nc1ccc(S(=O)(=O)N[C@@H](C)c2[nH]nc(-c3ccc(F)cc3)c2-c2ccncc2)cc1`, for which the IC50 against MAPK14 (human) [1] was 59 nM. The molecule also gave an inhibition on MAPK14 (human) [2] of 73%.
As for `O=C(NCCc1[nH]nc(-c2ccc(F)cc2)c1-c1ccncc1)N1CCOCC1`, the figures for the inhibition against MAPK14 (human) [1] and on MAPK14 (human) [2] were 86% and 34%, respectively.
For the molecule `CNC(=O)CC[C@H](NC(C)=O)c1[nH]nc(-c2ccc(F)cc2)c1-c1ccncc1`, on MAPK14 (human) [1], the half-inhibitory concentration (IC50) was found to be 660 nM. Also, on MAPK14 (human) [2], the inhibition is 46%.
On to `CC(Oc1ccccc1)C(=O)NCCc1[nH]nc(-c2ccc(F)cc2)c1-c1ccncc1` (centres undefined), for which the inhibition against MAPK14 (human) [1] came to 80%; on MAPK14 (human) [2], 55%.
For `O=C(NCCc1[nH]nc(-c2ccc(F)cc2)c1-c1ccncc1)Nc1cccc(Cl)c1Cl`, the figures for the inhibition against MAPK14 (human) [1] and against MAPK14 (human) [2] were 68% and 31%, respectively.
At MAPK14 (human) [1], `C[C@H](NS(=O)(=O)c1ccccc1C#N)c1[nH]nc(-c2ccc(F)cc2)c1-c1ccncc1` gave a concentration for half-maximal inhibition (IC50) of 250 nM. Also, the inhibition on MAPK14 (human) [2] was found to be 69%.
For `CCN(Cc1ccncc1)C(=O)Cn1nc(-c2ccc(F)cc2)c(-c2ccncc2)c1C`, the values for the inhibition on MAPK14 (human) [1] and against MAPK14 (human) [2] were 68% and 2%, respectively.
As for `C[C@@H](NS(=O)(=O)c1ccccc1C(=O)O)c1[nH]nc(-c2ccc(F)cc2)c1-c1ccncc1`, the IC50 at MAPK14 (human) [1] is 580 nM. At MAPK14 (human) [2], this molecule had an inhibition of 59%.
Take `CCOC(=O)C(C)NC(=O)NCCc1[nH]nc(-c2ccc(F)cc2)c1-c1ccncc1` (centres undefined): the results for the inhibition against MAPK14 (human) [1] and against MAPK14 (human) [2] were 63% and 25%, respectively.
On to `O=C(NCCCc1[nH]nc(-c2ccc(F)cc2)c1-c1ccncc1)c1ccccc1C(F)(F)F`, for which the inhibition against MAPK14 (human) [1] worked out at 65%; against MAPK14 (human) [2], 62%.
In turn, `C[C@H](NC(=O)Nc1ccccc1F)c1[nH]nc(-c2ccc(F)cc2)c1-c1ccncc1` showed a concentration for half-maximal inhibition (IC50) against MAPK14 (human) [1] of 6840 nM. In addition, the inhibition against MAPK14 (human) [2] is 38%.
For `CCOC(=O)[C@H](Cc1ccccc1)NC(=O)Cn1nc(-c2ccc(F)cc2)c(-c2ccncc2)c1C`, the values for the inhibition against MAPK14 (human) [1] and against MAPK14 (human) [2] were 77% and 1%, respectively.
On the same counts, the results for `COc1ccc(CC(=O)NCCCc2[nH]nc(-c3ccc(F)cc3)c2-c2ccncc2)cc1OC` are 67% and 67%.
On the same counts, the results for `COCCN(Cc1cccc(OC)c1)C(=O)Cn1nc(-c2ccc(F)cc2)c(-c2ccncc2)c1C` are 37% and 22%.
In turn, `O=C(NCCCc1[nH]nc(-c2ccc(F)cc2)c1-c1ccncc1)NCCc1cccnc1` showed an IC50 against MAPK14 (human) [1] of 71 nM. On MAPK14 (human) [2], this molecule gave an inhibition of 18%.
In the case of `NC(=O)NCCc1[nH]nc(-c2ccc(F)cc2)c1-c1ccncc1`, the inhibition on MAPK14 (human) [1] stood at 76%; at MAPK14 (human) [2], 60%.
As to `CC(=O)OCC(=O)NCCc1[nH]nc(-c2ccc(F)cc2)c1-c1ccncc1`, the inhibition on MAPK14 (human) [1] was found to be 62%; on MAPK14 (human) [2], 57%.
As to `O=S(=O)(NCCc1[nH]nc(-c2ccc(F)cc2)c1-c1ccncc1)c1ccccc1F`, the values for the inhibition against MAPK14 (human) [1] and on MAPK14 (human) [2] were 87% and 36%, respectively.
`C[C@@H](NC(=O)c1ccc(F)cc1)c1[nH]nc(-c2ccc(F)cc2)c1-c1ccncc1`: the IC50 at MAPK14 (human) [1] came to 660 nM. The inhibition against MAPK14 (human) [2] amounted to 24%.
Consider `CCCCCc1cccc(C(C)NC(=O)Cn2nc(-c3ccc(F)cc3)c(-c3ccncc3)c2C)c1` (centres undefined), for which the results for the inhibition at MAPK14 (human) [1] and on MAPK14 (human) [2] were 65% and 25%, respectively.
For `Cc1ccc(NC(=O)Cn2nc(-c3ccc(F)cc3)c(-c3ccncc3)c2C)cc1`, on MAPK14 (human) [1], the inhibition worked out at 85%. Also, the IC50 at MAPK14 (human) [2] is > 10000 nM.
In turn, `CCCCCSc1cccc(NC(=O)Cn2nc(-c3ccc(F)cc3)c(-c3ccncc3)c2C)c1` returned an inhibition against MAPK14 (human) [1] of 94%. Also, the IC50 on MAPK14 (human) [2] was > 10000 nM.
`COc1cccc(C(=O)NCCc2[nH]nc(-c3ccc(F)cc3)c2-c2ccncc2)c1`: the inhibition amounted to 54% on MAPK14 (human) [1] and 23% on MAPK14 (human) [2].
On the same counts, the results for `O=C(NCCc1[nH]nc(-c2ccc(F)cc2)c1-c1ccncc1)Nc1cccc2ccccc12` are 83% and 39%.
The corresponding values for `Cc1c(-c2ccncc2)c(-c2ccc(F)cc2)nn1CC(=O)Nc1ccc(CCC(=O)c2cccnc2)cc1` are 94% and 15%.
`C[C@@H](NS(=O)(=O)c1cc(Cl)cc(Cl)c1O)c1[nH]nc(-c2ccc(F)cc2)c1-c1ccncc1`: at MAPK14 (human) [1], the IC50 was 1110 nM. The inhibition against MAPK14 (human) [2] is 71%.
For the molecule `CC(NC(=O)NCCc1[nH]nc(-c2ccc(F)cc2)c1-c1ccncc1)c1cccc2ccccc12` (centres undefined), the inhibition on MAPK14 (human) [1] is 85%; on MAPK14 (human) [2] it was 2%.
For the molecule `Cn1cc(-c2ccncc2)c(-c2ccc(F)cc2)n1`, the IC50 is 700 nM against MAPK14 (human) [1]; 96.7 nM and 130 nM on MAPK14 (human) [2].
Consider `CC(C)=CC(=O)NCCCc1[nH]nc(-c2ccc(F)cc2)c1-c1ccncc1`, for which the inhibition on MAPK14 (human) [1] worked out at 72%. The IC50 at MAPK14 (human) [2] stood at 1830 nM.
Take `CCCS(=O)(=O)NCCc1[nH]nc(-c2ccc(F)cc2)c1-c1ccncc1`: the inhibition was 82% against MAPK14 (human) [1] and 35% against MAPK14 (human) [2].
On the same counts, the results for `Cc1c(-c2ccncc2)c(-c2ccc(F)cc2)nn1CC(=O)N1CCCCC1C[C@@H]1CCCN1C` (some centres undefined) are 42% and 24%.
In turn, `CN(C)C(=O)NCc1[nH]nc(-c2ccc(F)cc2)c1-c1ccncc1` returned an IC50 at MAPK14 (human) [1] of 110 nM. The same molecule gave an inhibition on MAPK14 (human) [2] of 51%.
As to `O=C(NCCc1[nH]nc(-c2ccc(F)cc2)c1-c1ccncc1)[C@H]1CCCN1`, the inhibition at MAPK14 (human) [1] was 89%; against MAPK14 (human) [2], 63%.
The corresponding values for `O=C(NCCc1[nH]nc(-c2ccc(F)cc2)c1-c1ccncc1)c1ccno1` are 77% and 45%.
On the same counts, the results for `O=S(=O)(NCCCc1[nH]nc(-c2ccc(F)cc2)c1-c1ccncc1)C(F)(F)F` are 74% and 68%.
On the same counts, the results for `Cc1cccc(C)c1NC(=O)Cn1nc(-c2ccc(F)cc2)c(-c2ccncc2)c1C` are 83% and 18%.
With `Cc1c(-c2ccncc2)c(-c2ccc(F)cc2)nn1CC(=O)N(CC1CC1)C(C)Cc1ccc(Cl)cc1` (centres undefined), the inhibition was found to be 83% on MAPK14 (human) [1] and 22% at MAPK14 (human) [2].
The corresponding values for `CS(=O)(=O)NCCc1[nH]nc(-c2ccc(F)cc2)c1-c1ccncc1` are 89% and 57%.
`Cc1cccc(S(=O)(=O)N[C@H](C)c2[nH]nc(-c3ccc(F)cc3)c2-c2ccncc2)c1` showed an IC50 against MAPK14 (human) [1] of 25 nM. At MAPK14 (human) [2], this molecule yielded an inhibition of 96%.
`COc1ccccc1NC(=O)NCCc1[nH]nc(-c2ccc(F)cc2)c1-c1ccncc1` had an inhibition against MAPK14 (human) [1] of 62%. In addition, the IC50 on MAPK14 (human) [2] amounted to 520 nM.
For `COc1ccc(S(=O)(=O)NCCc2[nH]nc(-c3ccc(F)cc3)c2-c2ccncc2)cc1`, the inhibition against MAPK14 (human) [1] was determined as 61%; against MAPK14 (human) [2] it was 23%.
For `CC1(C)[C@@H]2CC[C@]1(CS(=O)(=O)NCCCc1[nH]nc(-c3ccc(F)cc3)c1-c1ccncc1)C(=O)C2`, on MAPK14 (human) [1], the IC50 was < 100 nM. The inhibition against MAPK14 (human) [2] is 59%.
Take `COc1ccc(C2OCCN2C(=O)Cn2nc(-c3ccc(F)cc3)c(-c3ccncc3)c2C)cc1OC` (centres undefined): the inhibition at MAPK14 (human) [1] stood at 69%; on MAPK14 (human) [2], 18%.
For `COc1ccc(OC)c(NC(=O)NCCc2[nH]nc(-c3ccc(F)cc3)c2-c2ccncc2)c1`, the inhibition on MAPK14 (human) [1] stood at 76%. On MAPK14 (human) [2], this molecule gave an IC50 of 880 nM.
Consider `CCC(C(=O)NCc1[nH]nc(-c2ccc(F)cc2)c1-c1ccncc1)c1ccccc1` (centres undefined), for which the inhibition at MAPK14 (human) [1] was 94%; on MAPK14 (human) [2], 76%.
Consider `CCOC(=O)C(CCSC)NC(=O)NCCc1[nH]nc(-c2ccc(F)cc2)c1-c1ccncc1` (centres undefined), for which the inhibition on MAPK14 (human) [1] is 69%; against MAPK14 (human) [2], 54%.
In turn, `N/C(=C(\N)S(=O)(=O)NCc1[nH]nc(-c2ccc(F)cc2)c1-c1ccncc1)c1ccccc1` gave an inhibition against MAPK14 (human) [1] of 89%. The same molecule yielded a concentration for half-maximal inhibition (IC50) against MAPK14 (human) [2] of 2780 nM.
Consider `CC(C)S(=O)(=O)NCCc1[nH]nc(-c2ccc(F)cc2)c1-c1ccncc1`, for which the inhibition at MAPK14 (human) [1] was found to be 77%; against MAPK14 (human) [2], 34%.
On to `O=C(NCc1[nH]nc(-c2ccc(F)cc2)c1-c1ccncc1)N1CCOCC1`, for which the IC50 against MAPK14 (human) [1] was 560 nM; against MAPK14 (human) [2], > 1000 nM.
In the case of `O=C(NCCc1[nH]nc(-c2ccc(F)cc2)c1-c1ccncc1)c1cccnc1`, the results for the inhibition against MAPK14 (human) [1] and against MAPK14 (human) [2] were 58% and 23%, respectively.
`Cc1c(-c2ccncc2)c(-c2ccc(F)cc2)nn1CC(=O)N(C)CCCC1c2ccccc2CCc2ccccc21` displayed an inhibition on MAPK14 (human) [1] of 50%. The half-inhibitory concentration (IC50) on MAPK14 (human) [2] was > 10000 nM.
Turning to `O=C(NCCc1[nH]nc(-c2ccc(F)cc2)c1-c1ccncc1)Nc1ccccc1OC(F)(F)F`, the inhibition came to 66% against MAPK14 (human) [1] and 48% on MAPK14 (human) [2].
For the molecule `COc1ccc(CC(=O)NCCCc2[nH]nc(-c3ccc(F)cc3)c2-c2ccncc2)cc1`, the inhibition at MAPK14 (human) [1] was determined as 70%. For the same molecule, the IC50 at MAPK14 (human) [2] was 1160 nM.
For the molecule `O=C(NCCCc1[nH]nc(-c2ccc(F)cc2)c1-c1ccncc1)C1CCCC1`, the inhibition amounted to 79% against MAPK14 (human) [1] and 66% against MAPK14 (human) [2].
The corresponding values for `COc1ccc2[nH]c3c(c2c1)CCN(C(=O)Cn1nc(-c2ccc(F)cc2)c(-c2ccncc2)c1C)C3` are 39% and 10%.
On the same counts, the results for `O=C(NCCc1[nH]nc(-c2ccc(F)cc2)c1-c1ccncc1)Nc1cc(Cl)ccc1Cl` are 61% and 39%.
For the molecule `CCOC(=O)CCOC(=O)NCc1[nH]nc(-c2ccc(F)cc2)c1-c1ccncc1`, the inhibition on MAPK14 (human) [1] turned out to be 54%; at MAPK14 (human) [2], 5%.
On the same counts, the results for `Cc1ccc(S(=O)(=O)NCCc2[nH]nc(-c3ccc(F)cc3)c2-c2ccncc2)cc1` are 58% and 18%.
At MAPK14 (human) [1], `CCN(CC)C(=O)NCc1[nH]nc(-c2ccc(F)cc2)c1-c1ccncc1` gave an IC50 of 130 nM. In addition, the inhibition at MAPK14 (human) [2] came to 40%.
For `Cc1ccc(S(=O)(=O)N[C@@H](Cc2ccccc2)C(=O)NCCc2[nH]nc(-c3ccc(F)cc3)c2-c2ccncc2)cc1`, the figures for the inhibition against MAPK14 (human) [1] and against MAPK14 (human) [2] were 72% and 17%, respectively.
Turning to `CCOC(=O)CC[C@H](NC(=O)Cn1nc(-c2ccc(F)cc2)c(-c2ccncc2)c1C)C(=O)OCC`, the inhibition on MAPK14 (human) [1] is 45%. Besides, the IC50 against MAPK14 (human) [2] was > 10000 nM.

One may read the inhibition as how much of the control response was suppressed. The low end stands for little suppression, the high end for strong suppression. The IC50 is the midpoint of a concentration-inhibition curve.
